Experimental data from patent US4064252A, “Substituted N-(carboxymethyl)-3-aminopropan-2-ol derivatives” (Nippon Shinyaku Co., Ltd., priority 1975, dated 1977).
Where two headings read alike, the source gives them in different places.

Experiments:
[1] = tested on: serum cholesterol; assay: Blood lipid lowering in 8 week-old male rats having normal serum lipid content: serum cholesterol; type: in vivo; conditions: Rattus norvegicus, po, 84 h, 3.5 days, vs non-treated control, read-out: % decrease of serum cholesterol; for inhibition in vivo at 10 mg/kg/day: 10 mg/kg/day oral; for inhibition in vivo at 20 mg/kg/day: 20 mg/kg/day oral; for inhibition in vivo at 100 mg/kg/day: 100 mg/kg/day oral
Method: (§1) 1. Blood lipid lowering activities in 8 week-old male rats having normal serum lipid content.
(§2) The values shown in Table 1 indicate the concentration changes of serum cholesterol and serum triglycride after the treatment with the shown various doses/day for 3.5 days. The mentioned compounds were orally administered to rat's groups consisting of 10 animals through a stomach tube twice a day. Blood was usually withdrawn 4 hours after the last administration. Serum cholesterol concentration was determined by the method of Levine and Zak, and triglyceride by the method of Kassler and Laderer by means of autoanalyzer. In all examples shown in Table 1, % decrease of treated groups are then to the non-treated reference group (control group), where the value of control group is represented as 100%.
(§3) The values in Table 5 indicate the concentration changes of serum cholesterol and the triglyceride after the treatment with the shown various doses per day for 3.5 days. These compounds were orally administered to rat groups consisting of 10 animals through a stomach tube twice a day. Blood was usually withdrawn 4 hours after the last administration. Serum cholesterol concentration was determined by the method of Levine and Zak, and serum triglyceride by the method of Kessler and Lederer by means of autoanalyzer. In all examples shown in Table 1, % decrease of the treated groups are to the non-treated control group where the value of control group is represented as 100%. […] The following examples are given to illustrate the representative embodiment of this invention, but this invention is not limited to these examples.

[2] = tested on: serum triglyceride; assay: Blood lipid lowering in 8 week-old male rats having normal serum lipid content: serum triglyceride; type: in vivo, rat; conditions: 3.5 days, vs non-treated control; for inhibition in vivo at 10 mg/kg/day / inhibition in vivo at 20 mg/kg/day / inhibition in vivo at 100 mg/kg/day: Rattus norvegicus, po, 84 h, read-out: % decrease of serum triglyceride; for inhibition in vivo at 10 mg/kg/day: 10 mg/kg/day oral
Method: as §1, §2, §3

[3] = tested on: blood cholesterol; assay: Blood cholesterol lowering in thiouracil induced hypercholesterolemia of thiouracil loaded 9 week-old male rats; type: in vivo, rat; conditions: 4 days, vs thiouracil loaded control
Method: 3. Blood cholesterol lowering activities in the thiouracil induced hypercholesterolemia of thiouracil loaded 9 week-old male rats.
The compounds illustrated in Table 3 were orally administered for 4 days from the 4th day to rats given 0.1% thiouracil solution for 3 days as the pretreatment. Fasting for 18 hours after the last administration, blood was withdrawn. In all examples shown in Table 3, % inhibition of treated groups are to the thiouracil loaded control group, in which the changed value of cholesterol before and after the thiouracil load is represented as 100%.

[4] = tested on: blood triglyceride; assay: Blood triglyceride lowering in carbohydrate (fructose) induced hypertriglyceridemia of fructose loaded 9 week-old male rats; type: in vivo, rat; conditions: 3 days, vs fructose loaded control
Method: 2. Blood triglyceride lowering activities in the carbohydrate induced hypertriglyceridemia of fructose loaded 9 week-old rats.
Compounds shown in Table 2 were orally administered to the rat groups consisting of 10 animals for 3 days. Drinking of 10% fructose solution continued for 48 hours prior to sacrifice.
Fasting for 18 hours after the last administration, blood was withdrawn. In all examples shown in Table 2, % inhibitions of the treated groups are to the fructose loaded control group. The changed value of triglyoride content before and after the fructose load in the control group is represented as 100%.

O=C(O)CN(CC(O)COc1ccc(Cl)cc1)c1ccccc1 (stereo not shown) [Compound 2]
inhibition in vivo at 10 mg/kg/day ([1]; Table 1): 15.5%
inhibition in vivo at 20 mg/kg/day ([1]; Table 1): 28.8%
inhibition in vivo at 100 mg/kg/day ([1]; Table 1): 33.5%
inhibition in vivo at 10 mg/kg/day ([2]; Table 1): 53.6%
% decrease of serum triglyceride ([2]; Table 1, 20 mg/kg/day oral, 20 mg/kg/day): 73.2%
% decrease of serum triglyceride ([2]; Table 1, 100 mg/kg/day oral, 100 mg/kg/day): 72.0%

COC(=O)CN(CC(O)COc1ccc(Cl)cc1)c1ccccc1 (stereo not shown) [Compound 4]
inhibition ratio (hypocholesterolemic effect) ([3]; 10 mg/kg/day oral): 51.9%
inhibition ratio (hypocholesterolemic effect) ([3]; 30 mg/kg/day oral): 57.9%
inhibition ratio (hypocholesterolemic effect) ([3]; 100 mg/kg/day oral): 85.5%
inhibition in vivo at 10 mg/kg/day ([1]; Table 1): 22.9%
inhibition in vivo at 20 mg/kg/day ([1]; Table 1): 23.4%
inhibition in vivo at 100 mg/kg/day ([1]; Table 1): 39.1%
inhibition ratio (hypotriglyceridemic effect) ([4]; 10 mg/kg/day oral): 46.5%
inhibition ratio (hypotriglyceridemic effect) ([4]; 30 mg/kg/day oral): 69.9%
inhibition ratio (hypotriglyceridemic effect) ([4]; 100 mg/kg/day oral): 93.0%
inhibition in vivo at 10 mg/kg/day ([2]; Table 1): 36.5%
inhibition in vivo at 20 mg/kg/day ([2]; Table 1, 20 mg/kg/day oral): 54.4%
inhibition in vivo at 100 mg/kg/day ([2]; Table 1, 100 mg/kg/day oral): 59%

CCOC(=O)CN(CC(O)COc1ccc(Cl)cc1)c1ccccc1 (stereo not shown) [Compound 5]
inhibition ratio (hypocholesterolemic effect) ([3]; 10 mg/kg/day oral): 49.9%
inhibition ratio (hypocholesterolemic effect) ([3]; 30 mg/kg/day oral): 69.2%
inhibition ratio (hypocholesterolemic effect) ([3]; 100 mg/kg/day oral): 100.7%

CCCOC(=O)CN(CC(O)COc1ccc(Cl)cc1)c1ccccc1 (stereo not shown) [Compound 6]
inhibition ratio (hypocholesterolemic effect) ([3]; 10 mg/kg/day oral): 58.4%
inhibition ratio (hypocholesterolemic effect) ([3]; 30 mg/kg/day oral): 70.1%
inhibition ratio (hypocholesterolemic effect) ([3]; 100 mg/kg/day oral): 94.9%
inhibition in vivo at 20 mg/kg/day ([1]; Table 1): 34.7%
inhibition in vivo at 100 mg/kg/day ([1]; Table 1): 41.2%
inhibition ratio (hypotriglyceridemic effect) ([4]; 10 mg/kg/day oral): 55.9%
inhibition ratio (hypotriglyceridemic effect) ([4]; 30 mg/kg/day oral): 67.6%
inhibition ratio (hypotriglyceridemic effect) ([4]; 100 mg/kg/day oral): 85.7%
inhibition in vivo at 20 mg/kg/day ([2]; Table 1, 20 mg/kg/day oral): 49.6%
inhibition in vivo at 100 mg/kg/day ([2]; Table 1, 100 mg/kg/day oral): 72.4%

CCCCOC(=O)CN(CC(O)COc1ccc(Cl)cc1)c1ccccc1 (stereo not shown) [Compound 10]
inhibition ratio (hypocholesterolemic effect) ([3]; 10 mg/kg/day oral): 52.6%
inhibition ratio (hypocholesterolemic effect) ([3]; 30 mg/kg/day oral): 87.4%
inhibition ratio (hypocholesterolemic effect) ([3]; 100 mg/kg/day oral): 94.9%
inhibition ratio (hypotriglyceridemic effect) ([4]; 10 mg/kg/day oral): 48.5%
inhibition ratio (hypotriglyceridemic effect) ([4]; 30 mg/kg/day oral): 61.5%
inhibition ratio (hypotriglyceridemic effect) ([4]; 100 mg/kg/day oral): 63.3%

COC(=O)CN(CC(O)COc1ccccc1Cl)c1ccccc1 (stereo not shown) [Compound 11]
inhibition in vivo at 20 mg/kg/day ([1]; Table 1): 21.5%
inhibition in vivo at 100 mg/kg/day ([1]; Table 1): 30.3%
inhibition in vivo at 20 mg/kg/day ([2]; Table 1, 20 mg/kg/day oral): 65.4%
inhibition in vivo at 100 mg/kg/day ([2]; Table 1, 100 mg/kg/day oral): 66%

COC(=O)CN(CC(O)COc1ccc(C(C)(C)C)cc1)c1ccccc1 (stereo not shown) [Compound 18]
inhibition in vivo at 20 mg/kg/day ([1]; Table 1): 12.4%
inhibition in vivo at 100 mg/kg/day ([1]; Table 1): 14.9%
inhibition in vivo at 20 mg/kg/day ([2]; Table 1, 20 mg/kg/day oral): 54.5%
inhibition in vivo at 100 mg/kg/day ([2]; Table 1, 100 mg/kg/day oral): 59.3%

NC(=O)CN(CC(O)COc1ccc(Cl)cc1)c1ccccc1 (stereo not shown) [Compound 32]
inhibition in vivo at 100 mg/kg/day ([1]; Table 1): 29.6%
inhibition in vivo at 100 mg/kg/day ([2]; Table 1, 100 mg/kg/day oral): 56.6%

CCN(CC)C(=O)CN(CC(O)COc1ccc(Cl)cc1)c1ccccc1 (stereo not shown) [Compound 35]
inhibition in vivo at 100 mg/kg/day ([1]; Table 1): 19.8%
inhibition in vivo at 100 mg/kg/day ([2]; Table 1, 100 mg/kg/day oral): 52.7%

O=C(CN(CC(O)COc1ccc(Cl)cc1)c1ccccc1)NCc1ccccc1 (stereo not shown) [Compound 41]
inhibition in vivo at 100 mg/kg/day ([1]; Table 1): 12.3%
inhibition in vivo at 100 mg/kg/day ([2]; Table 1, 100 mg/kg/day oral): 53.2%

COC(=O)CN(CC(COc1ccc(Cl)cc1)OC(C)=O)c1ccccc1 (stereo not shown) [Compound 50, 2-acetoxy-1-(p-chlorophenoxy)-3-(N-carbomethoxymethyl-N-phenylamino) propane]
inhibition in vivo at 20 mg/kg/day ([1]; Table 5): 21.5%
inhibition in vivo at 100 mg/kg/day ([1]; Table 5): 30.3%
inhibition in vivo at 20 mg/kg/day ([2]; Table 5, 20 mg/kg/day oral): 65.4%
inhibition in vivo at 100 mg/kg/day ([2]; Table 5, 100 mg/kg/day oral): 66%

CCOC(=O)CN(CC(COc1ccc(Cl)cc1)OC(=O)c1cccnc1)c1ccccc1 (stereo not shown) [Compound 57]
inhibition in vivo at 20 mg/kg/day ([1]; Table 5): 12.4%
inhibition in vivo at 100 mg/kg/day ([1]; Table 5): 14.9%
inhibition in vivo at 20 mg/kg/day ([2]; Table 5, 20 mg/kg/day oral): 54.5%
inhibition in vivo at 100 mg/kg/day ([2]; Table 5, 100 mg/kg/day oral): 59.3%

N[C@@H](Cc1cc(I)c(Oc2cc(I)c(O)c(I)c2)c(I)c1)C(=O)O [L-thyroxine, reference compound]
inhibition ratio (hypocholesterolemic effect) ([3]; 3 mg/kg/day oral): 54.8%

CCOC(=O)C(C)(C)Oc1ccc(Cl)cc1 [clofibrate, reference compound]
inhibition in vivo at 10 mg/kg/day ([1]; Table 1): 5.8%
inhibition in vivo at 20 mg/kg/day ([1]; Table 1): 12.6%
inhibition in vivo at 100 mg/kg/day ([1]; Table 1): 37%
inhibition in vivo at 20 mg/kg/day ([1]; Table 5): 12.6%
inhibition in vivo at 100 mg/kg/day ([1]; Table 5): 37%
inhibition ratio (hypotriglyceridemic effect) ([4]; 10 mg/kg/day oral): -16.6%
inhibition ratio (hypotriglyceridemic effect) ([4]; 30 mg/kg/day oral): -2.3%
inhibition ratio (hypotriglyceridemic effect) ([4]; 100 mg/kg/day oral): 23.2%
inhibition in vivo at 10 mg/kg/day ([2]; Table 1): 6.2%
inhibition in vivo at 20 mg/kg/day ([2]; Table 1, 20 mg/kg/day oral): 36.3%
inhibition in vivo at 100 mg/kg/day ([2]; Table 1, 100 mg/kg/day oral): 51.7%
inhibition in vivo at 20 mg/kg/day ([2]; Table 5, 20 mg/kg/day oral): 36.3%
inhibition in vivo at 100 mg/kg/day ([2]; Table 5, 100 mg/kg/day oral): 51.7%
